Test results from patent publication US12331019B2, “Modified amino acid derivatives for the treatment of neurological diseases and selected psychiatric disorders” (Uniwersytet Jagiellonski, priority 2019, dated 2025).

Experiments:
patients = conditions: monotherapy; cited from earlier work
HaCaT cells = assay: cytotoxic activity, MTT assay; assay type: cell-based; conditions: Homo sapiens, 72 hours incubation, mean ± SD
Excerpt: MTT assay. […] The IC50 value was estimated using CompuSyn version 1.0.

[1] = rotarod test (motor coordination); conditions: male, Swiss albino (CD-1), mouse, in vivo, ip
Experimental: (§1) The study was conducted on male Swiss albino mice (CD-1) weighing 18-26 g. All procedures were carried out in accordance with applicable Polish and international guidelines on the ethics of animal testing, after obtaining appropriate institutional approval. […] These studies were carried out on individuals of male C57 black mice (Charles River) and individuals of male Sprague-Dawley rats. All tests were carried out based on the procedures described in the specialist literature.
(§2) These studies were also carried out in rats according to the methodology described by ETSP. The toxic dose (TD50) in the rotarod test was estimated based on the results obtained in 3-4 groups of animals consisting of at least 6 individuals.
(§3) To perform a statistical evaluation of the results, one-way analysis of variance (ANOVA) followed by Dunnett's post hoc test (multiple comparison test) were used. The values were considered statistically significant if p<0.05.

mice [2] = assay: spontaneous locomotor activity test; assay type: in vivo, mouse
Experimental: The assessment of the influence of the tested compounds on the spontaneous locomotor activity of animals (assessment of the sedative or activating effect) was carried out in accordance with the methodology described in the scientific literature (Mogilski et al. Inflamm. Res. 2017, 66, 79-95). The study group consisted of 10 animals.

Swiss albino mice (CD-1) [3] = assay: 6 Hz (44 mA) psychomotor seizure test; assay type: in vivo; conditions: Mus musculus, ip, 0.5 h; i.p., CD-1 mice, tested 30 min after administration
[4] = tested on: neurons derived from human neuroblastoma SH-SY5Y cells; assay: neurotrophic activity on human neurons, MTT test; conditions: 48 hours; for viability of human neurons under standard conditions: 0.1 to 100 μg/ml; for concentrations from which the compound acted trophically (eliminating the effect of lack of B27 supplement): trophic stress (B27 removed)
Swiss albino mice (CD-1) [5] = conditions: i.p., CD-1 mice, 30 min; racemates, disclosed in publications; cited from earlier work
Swiss albino mice (CD-1) [6] = conditions: i.p., CD-1 mice, 30 min; racemates, disclosed in publications; cited from earlier work; remark: listed apart in the source
mice [7] = assay: formalin test; assay type: in vivo, mouse; conditions: vs vehicle control
Experimental: as §1, with “literature. […] The study group consisted of 8-10 animals. […] To perform a statistical evaluation of the results, one-way analysis of variance (ANOVA) followed by Dunnett's post hoc test (multiple comparison test) were used. The values were considered statistically significant if p<0.05.” for “literature.”

CYP2D6 = target: T1, CYP2D6 (Homo sapiens, UniProt P10635); assay: CYP2D6 P450-Glo luminescence test; assay type: in vitro ADME; conditions: 10 μM
T1 construct: purchased Promega (Madison, WI, USA)
Experimental: (§4) The studies were conducted using commercial luminescence tests CYP3A4 P450-Glo™, CYP2D6 P450-Glo™ and CYP2C9 P450-Glo™ from Promega (Madison, WI, USA).
(§5) The studies were conducted using commercial luminescence tests CYP3A4 P450-Glo™, CYP2D6 P450-Glo™ and CYP2C9 P450-Glo™ from Promega (Madison, WI, USA). The CYP isoforms selected for study are responsible for the metabolism of approximately 60-70% of the drugs available and their stimulation or inhibition determines the majority of metabolic drug interactions.

Sprague-Dawley rats [8] = assay: lamotrigine resistant amygdala kindled seizure model; assay type: in vivo, rat; conditions: 70 mg/kg i.p., 30 min, 5 rats tested
Experimental: as §1
(§6) Screening was performed on groups of 4-8 mice or 4-8 rats. The median effective dose (ED50) in a given test was estimated based on the results obtained in 3-4 groups of animals consisting of at least 6 individuals.

HEK-293 cell line = assay: cytotoxic activity, MTS test; conditions: 72 hours incubation, concentration range 1-100 μM
CYP3A4 = target: T2, CYP3A4 (Homo sapiens, UniProt P08684); assay: CYP3A4 P450-Glo luminescence test; assay type: in vitro ADME; conditions: 10 μM
T2 construct: purchased Promega (Madison, WI, USA)
Experimental: as §4, §5

mice [9] = assay: streptozotocin-induced model of painful diabetic neuropathy, von Frey test; assay type: in vivo, mouse; conditions: 3 weeks after streptozotocin
Experimental: as §1, with “literature. […] The study group consisted of 8-10 animals. […] To perform a statistical evaluation of the results, one-way analysis of variance (ANOVA) followed by Dunnett's post hoc test (multiple comparison test) were used. The values were considered statistically significant if p<0.05.” for “literature.”

mice [10] = assay: neuroprotection in pilocarpine-induced status epilepticus (Fluoro-Jade B); conditions: PILO 300 mg/kg i.p.; dose of compound determined in the 6 Hz (32 mA) test; five mice shown (B-F)
mice [11] = assay: four plates test (Aron test); assay type: in vivo, mouse; conditions: vs vehicle control
Experimental: as §1, with “literature. […] The study group consisted of 8-10 animals. […] To perform a statistical evaluation of the results, one-way analysis of variance (ANOVA) followed by Dunnett's post hoc test (multiple comparison test) were used. The values were considered statistically significant if p<0.05.” for “literature.”

mice [12] = assay: forced swim test (Porsolt test); assay type: in vivo, mouse; conditions: 30, 45 and 60 mg/kg i.p.; vs vehicle control
Experimental: as §1, with “literature. […] The study group consisted of 8-10 animals. […] To perform a statistical evaluation of the results, one-way analysis of variance (ANOVA) followed by Dunnett's post hoc test (multiple comparison test) were used. The values were considered statistically significant if p<0.05.” for “literature.”

Sprague-Dawley rats [13] = assay: MES test in rats, ETSP; assay type: in vivo; conditions: Rattus norvegicus, ip, 0.5 h, i.p., tested 30 min after administration, 95% confidence limits in brackets
Experimental: as §1, §6, §3

in vivo = conditions: male, C57 black, mouse, ip
Experimental: as §1, §2, §3

[14] = tested on: black C57 mice (Charles River); assay: 6 Hz (44 mA) test, ETSP; assay type: in vivo; conditions: Mus musculus, ip, 1 h, i.p., tested 60 min after administration
Experimental: as §1, §6, §3

HepG2 cell line = assay: hepatotoxicity, MTS test; conditions: 72 hours incubation, concentration range 1-100 μM
[15] = tested on: black C57 mice (Charles River); assay: corneal kindled seizure model, ETSP; assay type: in vivo; conditions: Mus musculus, ip, 1 h, i.p., tested 60 min after administration
Experimental: as §1, §6, §3

mice [16] = assay: oxaliplatin-induced neuropathic pain model, von Frey test; assay type: in vivo, mouse
Experimental: as §1, with “literature. […] The study group consisted of 8-10 animals. […] To perform a statistical evaluation of the results, one-way analysis of variance (ANOVA) followed by Dunnett's post hoc test (multiple comparison test) were used. The values were considered statistically significant if p<0.05.” for “literature.”

CYP2C9 = CYP2C9 (Homo sapiens, UniProt P11712); conditions: 10 μM
Experimental: as §4, §5

human liver microsomes = assay: metabolic stability in human liver microsomes; assay type: in vitro ADME; conditions: 120 minutes incubation, NADPH cofactor
Experimental: The metabolic stability study was performed using human liver microsomes purchased from Sigma-Aldrich (St. Louis, MO, USA).

NCC1(CC(=O)O)CCCCC1 [gabapentin]
sedative effect, share of patients (patients): approx. 9 % of patients

CC[C@@H](C(N)=O)N1CCCC1=O [levetiracetam]
sedative effect, share of patients (patients): approx. 20 % of patients

COc1cccc2c1C(=O)c1c(O)c3c(c(O)c1C2=O)C[C@@](O)(C(=O)CO)C[C@@H]3O[C@H]1C[C@H](N)[C@H](O)[C@H](C)O1 [Doxorubicin, reference compound]
IC50 (HaCaT cells): 0.23 ± 0.03 µM

C[C@H](C(=O)NCc1ccccc1F)N1C(=O)CCC1=O [Compound 2, (2R)-2-(2,5-dioxopyrrolidin-1-yl)-N-(2-fluorobenzyl)propanamide]
TD50 at 30 min [1]: 299 mg/kg
spontaneous locomotor activity (mice [2]; 90 mg/kg i.p.): statistically significant increase in spontaneous locomotor activity
ED50 (Swiss albino mice (CD-1) [3]): 37.2 mg/kg
viability of human neurons under standard conditions [4]: did not affect the viability
concentrations from which the compound acted trophically (eliminating the effect of lack of B27 supplement) [4]: ≥ 0.1 µg/mL

CC(C(=O)NCc1ccccc1F)N1C(=O)CCC1=O (racemic) [(RS)-2, (2RS)-2-(2,5-dioxopyrrolidin-1-yl)-N-(2-fluorobenzyl)propanamide]
TD50 Rotarod test (Swiss albino mice (CD-1) [5]): 300.9 mg/kg

CC(C(=O)NCc1ccccc1)N1C(=O)CCC1=O (racemic) [(RS)-1, (2RS)—N-benzyl-2-(2,5-dioxopyrrolidin-1-yl)propenamide]
ED50 6 Hz (44 mA) (Swiss albino mice (CD-1) [6]): 75.41 mg/kg

Nc1nnc(-c2cccc(Cl)c2Cl)c(N)n1 [lamotrigine]
sedative effect, share of patients (patients): approx. 10 % of patients

CCC1(c2ccccc2)C(=O)NC(=O)NC1=O [phenobarbital]
sedative effect, share of patients (patients): approx. 39 % of patients

C[C@H](C(=O)NCc1ccccc1)N1C(=O)CCC1=O [Compound 1, (2R)—N-benzyl-2-(2,5-dioxopyrrolidin-1-yl)propanamide]
number of light beams interruptions during 30 minutes (spontaneous locomotor activity) (mice [2]; 30, 60 and 90 mg/kg i.p.): statistically significantly increased the number of light beams interruptions
nociceptive response time, second phase (tonic inflammatory pain) (mice [7]; i.p., 30, 60 and 90 mg/kg): statistically significantly shortened the time of nociceptive response
nociceptive response time, first phase (acute pain) (mice [7]; i.p., all doses, statistically significant at 60 and 90 mg/kg): reduced the nociceptive response time
effect on CYP2D6 activity (CYP2D6): no effect
Number of protected rats (Sprague-Dawley rats [8]): Number of protected rats: 3
protection (Sprague-Dawley rats [8]): (protection—60%)
effect on cell viability (HEK-293 cell line): did not show a statistically significant effect
effect on CYP3A4 activity (CYP3A4): no effect
pain threshold (mechanical stimulus) (mice [9]; 90 mg/kg i.p.): increased the pain threshold to the values observed before the induction of streptozotocin diabetes
pain threshold (mechanical stimulus) (mice [9]; 30, 60 and 90 mg/kg i.p., vs measurement before compound): led to an increase in the pain threshold in a statistically significant and dose-dependent manner
viability of human neurons under standard conditions [4]: did not affect the viability
concentrations from which the compound acted trophically (eliminating the effect of lack of B27 supplement) [4]: ≥ 1 µg/mL
neuroprotective effect after PILO-induced SE (neurodegenerative changes) (mice [10]): a protective effect was obtained for four mice
number of electrically punished plate crossings (mice [11]; 30 mg/kg i.p.): did not result in a statistically significant difference
number of electrically punished plate crossings (mice [11]; 60 mg/kg and 90 mg/kg i.p.): statistically significantly increased the number of electrically punished plate crossings
immobility time (mice [12]): statistically significantly shortened the immobility time
ED50 (Sprague-Dawley rats [13]): 34.9 mg/kg
TD50 at 60 min (in vivo): > 150 mg/kg
ED50 [14]: 69.9 mg/kg
effect on cell viability (HepG2 cell line): did not show a statistically significant effect
ED50 [15]: 38.1 mg/kg
pain threshold (mechanical stimulus) (mice [16]; 30 mg/kg i.p.): increased the pain threshold only in the early phase
pain threshold (mechanical stimulus) (mice [16]; 60 mg/kg and 90 mg/kg i.p., early (3 h) and late (7 days) phase, vs measurement before compound): led to an increase in pain threshold at a dose-dependent manner
effect on CYP2C9 activity (CYP2C9): small, statistically significant (p<0.05) inhibition
metabolites on UPLC chromatogram of reaction mixture (human liver microsomes): no metabolites appeared
IC50 (HaCaT cells): 239.8 ± 0.6 µM

O=C1NC(=O)C(c2ccccc2)(c2ccccc2)N1 [phenytoin]
sedative effect, share of patients (patients): approx. 32 % of patients
